Where a name gives a salt, the structure may show the parent alone. Read-outs that look alike come from different tables or passages of the source.
Experiments:
Type in all cases: in vivo, mouse
[1] = tested on: [3H]-ADMA transport across the blood-brain and blood-CSF barriers; test: self-inhibition, in situ perfusion: [^3H]-ADMA with 100 μM unlabelled ADMA; details: male, Balb/c, mouse, other: in situ brain perfusion, with unlabelled ADMA 100 µM, 10 mins, Balb/c ♂, 5ml/min
Description: (§1) Self-inhibition experiments were also performed. […] Cross-competition experiments were also performed.
(§2) The percentage change in the RTissue uptake values achieved in the absence or presence of an unlabelled inhibitor can be calculated by means of Eq 4.
(§3) %change=RTissue−RInhibition/RTissue×100 Eq 4
(§4) We define RInhibition as the RTissue uptake in the presence of an inhibitor in the artificial plasma.
(§5) A decrease in the uptake of radiolabelled solute in the presence of unlabelled inhibitor is indicative of a saturable influx transport system. Conversely, an increase in the uptake of radiolabelled solute in the presence of unlabelled inhibitor is indicative of a saturable efflux transport system.

[2] = cross-inhibition, in situ perfusion: [^3H]-ADMA with 100 μM unlabelled L-arginine; details: male, Balb/c, mouse, other: in situ brain perfusion, with 100 µM unlabelled L-arginine, 10 mins, Balb/c ♂, 5ml/min
Description: as §1, §2, §3, §4, §5

[3] = tested on: [3H]-ADMA transport across the blood-brain and blood-CSF barriers; test: as above; details: male, Balb/c, mouse, other: in situ brain perfusion, with 100 µM unlabelled L-arginine, 10 mins, Balb/c ♂, 5ml/min
Description: as §1, §2, §3, §4, §5

Structure (SMILES): CN(C)C(N)=NCCC[C@H](N)C(=O)O [ADMA, N^G,N^G-dimethylarginine dihydrochloride]
- Kp at 10 min, 62.5 nM ([1]; CSF, Difference (ADMA minus Sucrose), CSF, + 100uM un-labelled ADMA, mean): 2.01
- Kp at 10 min, 62.5 nM ([1]; CSF, [3H] ADMA + [14C] Sucrose + 100uM un-labelled ADMA, mean, read-out: uptake into CSF): 2.15
- Kp at 10 min, 62.5 nM ([1]; cerebellum, Difference (ADMA minus Sucrose), cerebellum, + 100uM un-labelled ADMA, individual mice): 0.0515
- Kp at 10 min, 62.5 nM ([1]; cerebellum, Difference (ADMA minus Sucrose), cerebellum, + 100uM un-labelled ADMA, mean): 0.0701
- Kp at 10 min, 62.5 nM ([1]; cerebellum, [3H] ADMA + [14C] Sucrose + 100uM un-labelled ADMA, individual mice, read-out: uptake into cerebellum): 0.09
- Kp at 10 min, 62.5 nM ([1]; cerebellum, [3H] ADMA + [14C] Sucrose + 100uM un-labelled ADMA, mean, read-out: uptake into cerebellum): 0.121
- Kp at 10 min, 62.5 nM ([1]; homogenate, Difference (ADMA minus Sucrose), homogenate, + 100uM un-labelled ADMA, mean): 0.0396
- Kp at 10 min, 62.5 nM ([1]; homogenate, [3H] ADMA + [14C] Sucrose + 100uM un-labelled ADMA, individual mice, read-out: uptake, homogenate): 0.0686
- Kp at 10 min, 62.5 nM ([1]; homogenate, [3H] ADMA + [14C] Sucrose + 100uM un-labelled ADMA, mean, read-out: uptake, homogenate): 0.0884
- Kp at 10 min, 62.5 nM ([1]; hypothalamus, Difference (ADMA minus Sucrose), hypothalamus, + 100uM un-labelled ADMA, mean): 0.0972
- Kp at 10 min, 62.5 nM ([1]; hypothalamus, [3H] ADMA + [14C] Sucrose + 100uM un-labelled ADMA, mean, read-out: uptake into hypothalamus): 0.146
- Kp at 10 min, 62.5 nM ([1]; pellet, Difference (ADMA minus Sucrose), pellet, + 100uM un-labelled ADMA, individual mice): 0.01
- Kp at 10 min, 62.5 nM ([1]; pellet, [3H] ADMA + [14C] Sucrose + 100uM un-labelled ADMA, individual mice, read-out: uptake, pellet): 0.0144
- Kp at 10 min, 62.5 nM ([1]; pellet, [3H] ADMA + [14C] Sucrose + 100uM un-labelled ADMA, mean, read-out: uptake, pellet): 0.0179
- Kp at 10 min, 62.5 nM ([1]; pituitary gland, Difference (ADMA minus Sucrose), pituitary gland, + 100uM un-labelled ADMA, mean): 0.586
- Kp at 10 min, 62.5 nM ([1]; pituitary gland, [3H] ADMA + [14C] Sucrose + 100uM un-labelled ADMA, mean, read-out: uptake into pituitary gland): 0.681
- Kp at 10 min, 62.5 nM ([1]; pons, Difference (ADMA minus Sucrose), pons, + 100uM un-labelled ADMA, mean): 0.0724
- Kp at 10 min, 62.5 nM ([1]; pons, [3H] ADMA + [14C] Sucrose + 100uM un-labelled ADMA, individual mice, read-out: uptake into pons): 0.102
- Kp at 10 min, 62.5 nM ([1]; pons, [3H] ADMA + [14C] Sucrose + 100uM un-labelled ADMA, mean, read-out: uptake into pons): 0.127
- Kp at 10 min, 62.5 nM ([1]; supernatant, Difference (ADMA minus Sucrose), supernatant, + 100uM un-labelled ADMA, mean): 0.0316
- Kp at 10 min, 62.5 nM ([1]; supernatant, [3H] ADMA + [14C] Sucrose + 100uM un-labelled ADMA, individual mice, read-out: uptake, supernatant): 0.047
- Kp at 10 min, 62.5 nM ([1]; supernatant, [3H] ADMA + [14C] Sucrose + 100uM un-labelled ADMA, mean, read-out: uptake, supernatant): 0.0703
- Kp at 10 min, 62.5 nM ([1]; thalamus, Difference (ADMA minus Sucrose), thalamus, + 100uM un-labelled ADMA, mean): 0.0727
- Kp at 10 min, 62.5 nM ([1]; thalamus, [3H] ADMA + [14C] Sucrose + 100uM un-labelled ADMA, individual mice, read-out: uptake into thalamus): 0.077
- Kp at 10 min, 62.5 nM ([1]; thalamus, [3H] ADMA + [14C] Sucrose + 100uM un-labelled ADMA, mean, read-out: uptake into thalamus): 0.117
- Kp at 10 min, 62.5 nM ([2]; CSF, [3H] ADMA + [14C] Sucrose + 100uM Arg, mean, read-out: uptake into CSF): 0.162
- Kp at 10 min, 62.5 nM ([2]; brain homogenate, Difference (ADMA minus Sucrose), homogenate, + 100uM Arg, mean): 0.0265
- Kp at 10 min, 62.5 nM ([2]; brain homogenate, [3H] ADMA + [14C] Sucrose + 100uM Arg, mean, read-out: uptake, homogenate): 0.063
- Kp at 10 min, 62.5 nM ([2]; pellet, Difference (ADMA minus Sucrose), pellet, + 100uM Arg, individual mice): 0.00309
- Kp at 10 min, 62.5 nM ([2]; pellet, [3H] ADMA + [14C] Sucrose + 100uM Arg, mean, read-out: uptake, pellet): 0.011
- Kp at 10 min, 62.5 nM ([2]; supernatant, Difference (ADMA minus Sucrose), supernatant, + 100uM Arg, mean): 0.0204
- Kp at 10 min, 62.5 nM ([2]; supernatant, [3H] ADMA + [14C] Sucrose + 100uM Arg, mean, read-out: uptake, supernatant): 0.0475
- Kp at 10 min, 62.5 nM ([3]; caudate nucleus, Difference (ADMA minus Sucrose), caudate nucleus, + 100uM Arg, mean): 0.0481
- Kp at 10 min, 62.5 nM ([3]; caudate nucleus, [3H] ADMA + [14C] Sucrose + 100uM Arg, individual mice, read-out: uptake into caudate nucleus): 0.0565
- Kp at 10 min, 62.5 nM ([3]; caudate nucleus, [3H] ADMA + [14C] Sucrose + 100uM Arg, mean, read-out: uptake into caudate nucleus): 0.0664
- Kp at 10 min, 62.5 nM ([3]; cerebellum, Difference (ADMA minus Sucrose), cerebellum, + 100uM Arg, mean): 0.0445
- Kp at 10 min, 62.5 nM ([3]; cerebellum, [3H] ADMA + [14C] Sucrose + 100uM Arg, mean, read-out: uptake into cerebellum): 0.0673
- Kp at 10 min, 62.5 nM ([3]; choroid plexus, Difference (ADMA minus Sucrose), choroid plexus, + 100uM Arg, individual mice): 0.469
- Kp at 10 min, 62.5 nM ([3]; choroid plexus, Difference (ADMA minus Sucrose), choroid plexus, + 100uM Arg, mean): 0.471
- Kp at 10 min, 62.5 nM ([3]; choroid plexus, [3H] ADMA + [14C] Sucrose + 100uM Arg, individual mice, read-out: uptake into choroid plexus): 0.609
- Kp at 10 min, 62.5 nM ([3]; choroid plexus, [3H] ADMA + [14C] Sucrose + 100uM Arg, mean, read-out: uptake into choroid plexus): 0.616
- Kp at 10 min, 62.5 nM ([3]; frontal cortex, Difference (ADMA minus Sucrose), frontal cortex, + 100uM Arg, mean): 0.0598
- Kp at 10 min, 62.5 nM ([3]; frontal cortex, [3H] ADMA + [14C] Sucrose + 100uM Arg, mean, read-out: uptake into frontal cortex): 0.0858
- Kp at 10 min, 62.5 nM ([3]; hippocampus, Difference (ADMA minus Sucrose), hippocampus, + 100uM Arg, mean): 0.0475
- Kp at 10 min, 62.5 nM ([3]; hippocampus, [3H] ADMA + [14C] Sucrose + 100uM Arg, mean, read-out: uptake into hippocampus): 0.0608
